The NIST ThermoML archive (doi:10.1021/je700193w)

Tests used:
[1] = 101.33 kPa, Liquid
[2] = xn = mol fraction of the nth substance listed; settings: 101 kPa, Liquid
[3] = excess molar enthalpy (molar enthalpy of mixing); xn = mol fraction of the nth substance listed; settings: 101 kPa, Liquid

CC(C)CO [2-methyl-1-propanol]
[1]
Settings | mass density [kg/m3] | speed of sound [m/s]
283.15 K | 809.36 | 1238.7
298.15 K | 798.03 | 1188
303.15 K | 794.17 | 1174.3
313.15 K | 786.1 | 1138
323.15 K | 777.85 | 1108.2

CC(C)(C)O [2-methylpropan-2-ol]
[1]
Settings | mass density [kg/m3] | speed of sound [m/s]
303.15 K | 775.75 | 1101.9
313.15 K | 765.05 | 1056.4
323.15 K | 754.12 | 1015.9

C=C1CCC2CC1C2(C)C (stereo not drawn) [β-pinene]
[1]
Settings | mass density [kg/m3] | speed of sound [m/s]
283.15 K | 879.07 | 1354.7
298.15 K | 867.11 | 1295.1
303.15 K | 863.17 | 1278.6
313.15 K | 854.87 | 1236.3
323.15 K | 846.75 | 1200.7

C=C1CCC2CC1C2(C)C (stereo not drawn) [β-pinene] + CC(C)(C)O
Settings | excess molar enthalpy [kcal/mol] | mass density [kg/m3] | speed of sound [m/s]
[2], 303.15 K, x1 = 0.0534 | – | 782.04 | 1110
[2], 303.15 K, x1 = 0.1048 | – | 787.79 | 1118.6
[2], 303.15 K, x1 = 0.2017 | – | 798.21 | 1135.6
[2], 303.15 K, x1 = 0.2814 | – | 806.31 | 1150.6
[2], 303.15 K, x1 = 0.4041 | – | 817.92 | 1173.7
[2], 303.15 K, x1 = 0.5042 | – | 826.75 | 1192.6
[2], 303.15 K, x1 = 0.6025 | – | 834.76 | 1210.5
[2], 303.15 K, x1 = 0.7042 | – | 842.46 | 1228.3
[2], 303.15 K, x1 = 0.8048 | – | 849.62 | 1244.8
[2], 303.15 K, x1 = 0.9007 | – | 856.11 | 1260.2
[2], 303.15 K, x1 = 0.9495 | – | 859.38 | 1268.7
[2], 313.15 K, x1 = 0.0561 | – | 771.94 | 1066.4
[2], 313.15 K, x1 = 0.108 | – | 777.84 | 1076
[2], 313.15 K, x1 = 0.2041 | – | 788.5 | 1094.3
[2], 313.15 K, x1 = 0.2996 | – | 798.32 | 1112.7
[2], 313.15 K, x1 = 0.4028 | – | 808.25 | 1132.3
[2], 313.15 K, x1 = 0.5039 | – | 817.37 | 1151
[2], 313.15 K, x1 = 0.5964 | – | 825.06 | 1167.1
[2], 313.15 K, x1 = 0.6957 | – | 832.77 | 1183.8
[2], 313.15 K, x1 = 0.7979 | – | 840.16 | 1201.1
[2], 313.15 K, x1 = 0.893 | – | 846.86 | 1216.7
[2], 313.15 K, x1 = 0.9475 | – | 850.67 | 1226.2
[2], 323.15 K, x1 = 0.0554 | – | 761.34 | 1027.2
[2], 323.15 K, x1 = 0.1025 | – | 766.94 | 1036.7
[2], 323.15 K, x1 = 0.2016 | – | – | 1056.6
[2], 323.15 K, x1 = 0.2032 | – | 778.49 | –
[2], 323.15 K, x1 = 0.3022 | – | 788.82 | 1076.4
[2], 323.15 K, x1 = 0.3988 | – | 798.4 | 1095.2
[2], 323.15 K, x1 = 0.5053 | – | 808.25 | 1115.2
[2], 323.15 K, x1 = 0.5996 | – | 816.33 | 1132.3
[2], 323.15 K, x1 = 0.7001 | – | 824.27 | 1149.5
[2], 323.15 K, x1 = 0.7941 | – | 831.23 | –
[2], 323.15 K, x1 = 0.799 | – | – | 1165.8
[2], 323.15 K, x1 = 0.8861 | – | – | 1180.1
[2], 323.15 K, x1 = 0.8905 | – | 838.16 | –
[2], 323.15 K, x1 = 0.9367 | – | – | 1188.6
[2], 323.15 K, x1 = 0.9453 | – | 842.1 | –
[3], 303.15 K, x1 = 0.0529 | 0.0559 | – | –
[3], 303.15 K, x1 = 0.109 | 0.102 | – | –
[3], 303.15 K, x1 = 0.2159 | 0.162 | – | –
[3], 303.15 K, x1 = 0.3175 | 0.192 | – | –
[3], 303.15 K, x1 = 0.4299 | 0.198 | – | –
[3], 303.15 K, x1 = 0.5331 | 0.201 | – | –
[3], 303.15 K, x1 = 0.6229 | 0.194 | – | –
[3], 303.15 K, x1 = 0.7198 | 0.175 | – | –
[3], 303.15 K, x1 = 0.8249 | 0.15 | – | –
[3], 303.15 K, x1 = 0.9096 | 0.114 | – | –
[3], 303.15 K, x1 = 0.9686 | 0.0566 | – | –
[3], 313.15 K, x1 = 0.0529 | 0.0538 | – | –
[3], 313.15 K, x1 = 0.109 | 0.104 | – | –
[3], 313.15 K, x1 = 0.2159 | 0.179 | – | –
[3], 313.15 K, x1 = 0.3175 | 0.217 | – | –
[3], 313.15 K, x1 = 0.4299 | 0.229 | – | –
[3], 313.15 K, x1 = 0.5331 | 0.238 | – | –
[3], 313.15 K, x1 = 0.6229 | 0.235 | – | –
[3], 313.15 K, x1 = 0.7198 | 0.22 | – | –
[3], 313.15 K, x1 = 0.8249 | 0.184 | – | –
[3], 313.15 K, x1 = 0.9096 | 0.139 | – | –
[3], 313.15 K, x1 = 0.9686 | 0.0621 | – | –
[3], 323.15 K, x1 = 0.0529 | 0.102 | – | –
[3], 323.15 K, x1 = 0.109 | 0.141 | – | –
[3], 323.15 K, x1 = 0.2159 | 0.201 | – | –
[3], 323.15 K, x1 = 0.3175 | 0.236 | – | –
[3], 323.15 K, x1 = 0.4299 | 0.251 | – | –
[3], 323.15 K, x1 = 0.5331 | 0.263 | – | –
[3], 323.15 K, x1 = 0.6229 | 0.262 | – | –
[3], 323.15 K, x1 = 0.7198 | 0.248 | – | –
[3], 323.15 K, x1 = 0.8249 | 0.199 | – | –
[3], 323.15 K, x1 = 0.9096 | 0.147 | – | –
[3], 323.15 K, x1 = 0.9686 | 0.0528 | – | –
